# Assays:
# Assay type in all cases: functional
# Staphylococcus aureus = assay: Antibacterial activity against Staphylococcus aureus assessed as bacterial growth inhibition by CLSI protocol based broth microdilution assay
# [1] = tested on: Staphylococcus epidermidis; assay: Antibacterial activity against Staphylococcus epidermidis assessed as bacterial growth inhibition by CLSI protocol based broth microdilution assay
# Bacillus subtilis = assay: Antibacterial activity against Bacillus subtilis assessed as bacterial growth inhibition by CLSI protocol based broth microdilution assay
# Mycolicibacterium phlei = assay: Antibacterial activity against Mycobacterium phlei assessed as bacterial growth inhibition by CLSI protocol based broth microdilution assay
Structure (SMILES),MIC (Staphylococcus aureus) [µg/mL],MIC [1] [µg/mL],MIC (Bacillus subtilis) [µg/mL],MIC (Mycolicibacterium phlei) [µg/mL]
Cc1cc(O)c2c(c1)C(=O)C1=C(C2=O)[C@H]2C(O)=C3C(=O)c4c(O)cc(C)cc4C(=O)[C@@]34CC(=O)C1C4[C@H]2O (stereo not given in full),0.4,0.4,0.4,0.4
Cc1cc(O)c2c(c1)C(=O)[C@]13C[C@H](O)C4C1[C@@H](O)[C@H](C(O)=C3C2=O)[C@@]12O[C@@]41C(=O)c1cc(C)cc(O)c1C2=O (stereo not given in full),0.4,0.4,0.4,0.8
Cc1cc(O)c2c(c1)C(=O)C1=C(C2=O)[C@H]2C(O)=C3C(=O)c4c(O)cc(C)cc4C(=O)[C@@]34C[C@H](O)C1C4[C@H]2O (stereo not given in full),1.6,1.6,1.6,1.6
Cc1cc(O)c2c(c1)C(=O)[C@]13C[C@H](O)C4C1[C@@H](O)[C@H](C(O)=C3C2=O)[C@@]12O[C@@]41C(=O)c1cc(C)cc(O)c1[C@H]2O (stereo not given in full),6.5,3.3,6.5,6.5
O=C(N[C@H](CO)[C@H](O)c1ccc([N+](=O)[O-])cc1)C(Cl)Cl [CHLORAMPHENICOL],0.3,1.5,0.8,1.3
